According to patent US9682928B2 (NeuroPro Therapeutics, Inc., priority 2009, dated 2017):

Tests used:
[1] = test system: Male Rj: NMRI mice; experiment: Formalin paw test (late phase) in the mouse; assay type: in vivo
Description: The method described herein detects analgesic/anti-inflammatory activity, generally used to test compounds for pain relief, in particular diabetic neuropathy or nociceptive neuropathy. See Wheeler-Aceto, et al. (1991) Psychopharmacology 104: 35-44.
Mice were given an intraplantar injection of 5% formalin (25 μl) into the posterior left paw. This treatment induces paw licking in control animals. Mice were briefly observed at 1 minute intervals between 15 and 50 minutes after the injection of formalin and the number of occasions that the mice were observed licking the injected paw was recorded. There were 10 mice per group and the test was performed “blind.”
The experiment included 11 groups. Data was analyzed by comparing treated groups with vehicle control using unpaired Mann-Whitney U tests.
Gabapentin (100 mg/kg i.p.) administered under the same experimental conditions, was used as reference substance. The experiment included several groups. Data was analyzed by comparing treated groups with vehicle control using unpaired Mann-Whitney U tests.

[2] = test system: adult mice (C57/B16); experiment: Mesial temporal lobe epilepsy model (mice), hippocampal discharges; assay type: in vivo, mouse; settings: 50 mg/kg for NTP-2014 and NTP-2026; 150 mg/kg for NTP-2024, NTP-2006, NTP-1007, NTP-1003
Description: Antiepileptic protocol: Up to eight adult mice (C57/B16) are injected with kainate (1 nmol in 50 nl) and are implanted with a bipolar electrode in the dorsal hippocampus using stereotaxic techniques under general anesthesia. […] Drug conditions are counter-balanced, the animals being used as their own controls. Digital EEG recordings are performed in freely moving animals for 20 min pre-injection and 80 min post-injection. The effects of the injected compound are compared versus vehicle injections and reference period (pre-dose). Upon completion of the experiment, standard histological analysis are performed to verify electrode location, cell losses in CA1, CA3 and hilus, as well as dentate gyrus dispersion. Only animals with all characteristics of MTLE are used in data analysis. […] The results below are normalized to the pre-dose condition for each of the treatment group including DMSO and saline vehicle controls. Doses of test article compounds were 50 mg/kg for NTP-2014 and NTP-2026 and 150 mg/kg for NTP-2024, NTP-2006, NTP-1007, and NTP-1003. Therefore the bumetanide, furosemide, piretanide, azosemide, and torsemide esters and amide analogs described herein may be used in therapeutic methods to treat seizures.

For `CCN(CC)C(=O)c1cc(S(N)(=O)=O)c(Cl)cc1NCc1ccco1` [NTP-1007, N,N-Diethyl 5-Aminosulfonyl-4-chloro-2-[(2-furanylmethyl)amino]benzamide], the “Licking Score % Pain Decrease” value ([1]; 50 μmol/kg i.p.) was 9%, the “Licking Score % Pain Decrease” value ([1]; 250 μmol/kg i.p.) was 13% and the “Licking Score % Pain Decrease” value ([1]; 500 μmol/kg i.p.) was 66%. For the same molecule, the “Anti-inflammatory and analgesic effects in formalin paw test (FIG. 16)” value ([1]; 50, 250, 500 μmole/kg) was “show anti-inflammatory and analgesic effects”, the “Licking Score (15 to 50 minutes post-formalin injection) % Change from Control” value ([1]; i.p. 30 minutes before the test, 50 μmol/kg (NTP-2006 23.9, NTP-2024 21.7, NTP-1007 19.3, NTP-2014 21, NTP-2026 23.1 mg/kg)) was −9% and the “Licking Score (15 to 50 minutes post-formalin injection) % Change from Control” value ([1]; i.p., 250 μmol/kg (NTP-2006 119, NTP-2024 108, NTP-1007 96.5, NTP-2014 105, NTP-2026 116 mg/kg)) was −13%. The “Licking Score (15 to 50 minutes post-formalin injection) % Change from Control” value ([1]; i.p., 500 μmol/kg (NTP-2006 239, NTP-2024 217, NTP-1007 193, NTP-2014 210, NTP-2026 231 mg/kg)) was −66%, the “Cumulative duration of hippocampal discharges” value [2] was “decreased” and the “Number of hippocampal discharges” value [2] was “decreased”.
